Experimental findings from patent US8101768B2, “Cyclic amine compound and pest control agent” (Nippon Soda Co., Ltd., priority 2004, dated 2012) are described below.

Structures are written as SMILES.

This assay concerns organophosphorous agent resistant two-spotted spider mites. Kind of assay: Effect on Two-spotted Spider Mite (spray on kidney bean leaves). The settings on record: 125 ppm, water dispersible powder of Formulation Example 1 sprayed, 17 female adults, 25° C., 65% humidity, 3 days. It is filed as in vivo. The source says:
Effect on Two-spotted Spider Mite
17 female adults of organophosphorous agent resistant two-spotted spider mites were inoculated onto the first leaves of kidney beans seeded onto 3.5 inch pots and germinated 7 to 10 days before, onto which each of liquid agents, diluted with water so as to adjust the respective concentration of the chemical compounds to 125 ppm according to the formulation of the water dispersible powder shown in the aforementioned Formulation Example 1, was sprayed. After they were left in a thermostatic chamber at 25° C. in 65% humidity for 3 days, the rate of killed adults was investigated. The examination was repeated twice. As the results, the following chemical compounds killed 100% of the adults.
As for `C=C(C)COc1cc(C(F)(F)F)ccc1OC1CC2CCC(C1)N2c1ccc(C(F)(F)F)cn1` (stereo not drawn) [2-147, 3α-[2-(2-methylallyloxy)-4-(trifluoromethyl)phenoxy]-8-[5-(trifluoromethyl)-2-pyridyl]-8-azabicyclo[3.2.1]octane], the “rate of killed adults” value is 100%.

For the compound `COC=Cc1cc(C(F)(F)F)ccc1O[C@@H]1[C@@H]2CC[C@H]1CN(c1ccc(C(F)(F)F)cn1)C2` [5-247], the “rate of killed adults” value is listed as 100%.

For the compound `CC(C)Oc1cc(C(F)(F)F)ccc1OC1CC2CCC(C1)N2c1ccc(C(F)(F)F)cn1` (centres unmarked) [2-96], the “rate of killed adults” value was found to be 100%.

Regarding `CC(COc1cc(C(F)(F)F)ccc1OC1C2CCC1CN(c1ccc(C(F)(F)F)cn1)C2)=NO` (centres unmarked) [5-183], the “rate of killed adults” value stood at 100%.

`CSCOc1cc(C(F)(F)F)ccc1OC1CC2CCC(C1)N2c1ccc(C(F)(F)F)cn1` (centres unmarked) [2-182]: the “rate of killed adults” value turned out to be 100%.

In the case of `FC(F)(F)c1ccc(N2C3CCC2CC(Oc2ccc(C(F)(F)F)cc2ON=C2CCCC2)C3)nc1` (centres unmarked) [2-227], the “rate of killed adults” value was 100%.

For the compound `CC=CCOc1cc(C(F)(F)F)ccc1OC1CC2CCC(C1)N2c1ccc(C(F)(F)F)cn1` (mixture of isomers) [2-145], the “rate of killed adults” value was 100%.

With `CC(C)(C)CC(O)c1cc(C(F)(F)F)ccc1O[C@@H]1[C@@H]2CC[C@H]1CN(c1ccc(C(F)(F)F)cn1)C2` (some centres unmarked) [5-255], the “rate of killed adults” value came to 100%.

Consider `CCCN(CCC)c1cc(C(F)(F)F)ccc1OC1CC2CCC(C1)N2c1ccc(C(F)(F)F)cn1` (centres unmarked) [2-159], for which the “rate of killed adults” value came to 100%.

As to `CCOc1cc(C(F)(F)F)ccc1OC1CC2CCC(C1)N2c1ccc(C(F)(F)F)cn1` (centres unmarked) [2-78], the “rate of killed adults” value came to 100%.

Turning to `CC(=O)OCCOc1cc(C(F)(F)F)ccc1OC1C2CCC1CN(c1ccc(C(F)(F)F)cn1)C2` (centres unmarked) [5-134], the “rate of killed adults” value worked out at 100%.

Take `FC(F)(F)c1ccc(N2[C@@H]3CC[C@H]2C[C@@H](Oc2ccc(C(F)(F)F)cc2SCC2CC2)C3)nc1` [2-166]: the “rate of killed adults” value stood at 100%.

Turning to `CCCCc1cc(C(F)(F)F)ccc1O[C@H]1C[C@H]2CC[C@@H](C1)N2c1ccc(C(F)(F)F)cn1` [2-187, 3α-[2-butyl-4-(trifluoromethyl)phenoxy]-8-[5-(trifluoromethyl)-2-pyridyl]-8-azabicyclo[3.2.1]octane], the “rate of killed adults” value was 100%.

Turning to `FC(F)(F)c1ccc(N2C3CCC2CC(Oc2ccc(C(F)(F)F)cc2OCC2CC2)C3)nc1` (centres unmarked) [2-105], the “rate of killed adults” value came to 100%.

In the case of `CCCOc1cc(C(F)(F)F)cc(Cl)c1OC1CC2CCC(C1)N2c1ccc(C(F)(F)F)cn1` (centres unmarked) [2-95], the “rate of killed adults” value is reported as 100%.

For the compound `CC(C)(C)OC(=O)c1cc(C(F)(F)F)ccc1OC1CC2CCC(C1)N2c1ccc(C(F)(F)F)cn1` (centres unmarked) [2-198], the “rate of killed adults” value is listed as 100%.

With `C#CCOc1cc(C(F)(F)F)ccc1OC1CC2CCC(C1)N2c1ccc(C(F)(F)F)cn1` (centres unmarked) [2-143], the “rate of killed adults” value is 100%.

For `O=C(OCC(F)(F)F)c1cc(C(F)(F)F)ccc1OC1CC2CCC(C1)N2c1ccc(C(F)(F)F)cn1` (centres unmarked) [2-240], the “rate of killed adults” value stood at 100%.

Consider `CC(=O)COc1cc(C(F)(F)F)ccc1O[C@@H]1[C@@H]2CC[C@H]1CN(c1ccc(C(F)(F)F)cn1)C2` [5-126], for which the “rate of killed adults” value stood at 100%.

`CCOC(=O)c1cc(C(F)(F)F)ccc1OC1CC2CCC(C1)N2c1ccc(C(F)(F)F)cn1` (centres unmarked) [2-193]: the “rate of killed adults” value is on record as 100%.

Turning to `Cc1ccc(OC2CCN(c3ccc(C(F)(F)F)cn3)CC2)c(C)c1` [1-44], the “rate of killed adults” value was found to be 100%.

Consider `CCCSc1cc(C(F)(F)F)ccc1OC1CC2CCC(C1)N2c1ccc(C(F)(F)F)cn1` (centres unmarked) [2-165], for which the “rate of killed adults” value was found to be 100%.

For `FC(F)(F)c1ccc(N2CC3CCC(C2)C3Oc2ccc(C(F)(F)F)cc2OCC2CCOC2)nc1` (centres unmarked) [5-205], the “rate of killed adults” value was found to be 100%.

Take `COCCOC(=O)c1cc(C(F)(F)F)ccc1OC1CC2CCC(C1)N2c1ccc(C(F)(F)F)cn1` (centres unmarked) [2-230]: the “rate of killed adults” value is listed as 100%.

Consider `CCC(C)OCc1cc(C(F)(F)F)ccc1O[C@@H]1[C@@H]2CC[C@H]1CN(c1ccc(C(F)(F)F)cn1)C2` (some centres unmarked) [5-242], for which the “rate of killed adults” value turned out to be 100%.

For the compound `FC(F)(F)c1ccc(N2CC3CCC(C2)C3Oc2ccc(C(F)(F)F)cc2OCc2ccsc2)nc1` (centres unmarked) [5-208], the “rate of killed adults” value is given as 100%.

Consider `CC1(C)COC(c2cc(C(F)(F)F)ccc2OC2CC3CCC(C2)N3c2ccc(C(F)(F)F)cn2)=N1` (centres unmarked) [2-210], for which the “rate of killed adults” value stood at 100%.

On to `FC(F)(F)c1ccc(N2CC3CCC(C2)C3Oc2ccc(C(F)(F)F)cc2OCc2cccs2)nc1` (centres unmarked) [5-209], for which the “rate of killed adults” value was found to be 100%.

Take `COCCCc1cc(C(F)(F)F)ccc1OC1CC2CCC(C1)N2c1ccc(C(F)(F)F)cn1` (centres unmarked) [2-190]: the “rate of killed adults” value is reported as 100%.

As for `CCCOc1cc(C(F)(F)F)ccc1OC1CC2CCC(C1)[N+]2([O-])c1ccc(C(F)(F)F)cn1` (stereo not drawn) [2-84, 3α-[2-propoxy-4-(trifluoromethyl)phenoxy]-8-oxy-8-[5-(trifluoromethyl)-2-pyridyl]-8-azabicyclo[3.2.1]octane], the “rate of killed adults” value is reported as 100%.

For the compound `Cc1coc(-c2cc(C(F)(F)F)ccc2OC2CC3CCC(C2)N3c2ccc(C(F)(F)F)cn2)n1` (centres unmarked) [2-209], the “rate of killed adults” value stood at 100%.

Take `FC(F)(F)c1ccc(N2CC3CCC(C2)C3Oc2ccc(C(F)(F)F)cc2OCc2ccccn2)nc1` (centres unmarked) [5-212]: the “rate of killed adults” value was 100%.

On to `CC(CBr)OC(=O)c1cc(C(F)(F)F)ccc1OC1CC2CCC(C1)N2c1ccc(C(F)(F)F)cn1` (centres unmarked) [2-236], for which the “rate of killed adults” value worked out at 100%.

On to `FC(F)(F)c1ccc(N2CC3CCC(C2)C3Oc2ccc(C(F)(F)F)cc2OCc2ccoc2)nc1` (centres unmarked) [5-207], for which the “rate of killed adults” value came to 100%.

For `CCCS(=O)(=O)Oc1cc(C(F)(F)F)ccc1OC1C2CCC1CN(c1ccc(C(F)(F)F)cn1)C2` (centres unmarked) [5-163], the “rate of killed adults” value was found to be 100%.

With `FC(F)(F)c1ccc(N2C[C@H]3CC[C@@H](C2)[C@@H]3Oc2ccc(C(F)(F)F)cc2OCc2ccccc2)nc1` [5-106], the “rate of killed adults” value worked out at 100%.

In the case of `CCCc1cc(Cl)ccc1OC1CCN(c2ccc(C(F)(F)F)cn2)CC1` [1-57], the “rate of killed adults” value came out at 100%.

In the case of `CCCCOCc1cc(C(F)(F)F)ccc1OC1C2CCC1CN(c1ccc(C(F)(F)F)cn1)C2` (centres unmarked) [5-223], the “rate of killed adults” value is reported as 100%.

In the case of `C=CCCOc1cc(C(F)(F)F)ccc1OC1C2CCC1CN(c1ccc(C(F)(F)F)cn1)C2` (centres unmarked) [5-176], the “rate of killed adults” value stood at 100%.

On to `OCCOc1cc(C(F)(F)F)ccc1OC1CCN(c2ccc(C(F)(F)F)cn2)CC1` [1-118], for which the “rate of killed adults” value is on record as 100%.

On to `FC(F)(F)c1ccc(N2C3CCC2CC(Oc2ccc(C(F)(F)F)cc2C2OCCO2)C3)nc1` (stereo not drawn) [2-169, 3α-{2-([1,3]dioxolane-yl)-4-(trifluoromethyl)phenoxy}-8-[5-(trifluoromethyl)-2-pyridyl]-8-azabicyclo[3.2.1]octane], for which the “rate of killed adults” value amounted to 100%.

As for `COCC(C)Oc1cc(C(F)(F)F)ccc1OC1CC2CCC(C1)N2c1ccc(C(F)(F)F)cn1` (centres unmarked) [2-178], the “rate of killed adults” value was 100%.

With `CCCOc1cc(C(F)(F)F)ccc1OC1CCN(c2ccc(C(F)(F)F)cn2)CC1CCC` (centres unmarked) [1-192], the “rate of killed adults” value came to 100%.

On to `CCCCCOc1cc(C(F)(F)F)ccc1OC1CC2CCC(C1)N2c1ccc(C(F)(F)F)cn1` (centres unmarked) [2-100], for which the “rate of killed adults” value was 100%.

Consider `COC(C)COc1cc(C(F)(F)F)ccc1OC1CC2CCC(C1)N2c1ccc(C(F)(F)F)cn1` (centres unmarked) [2-130], for which the “rate of killed adults” value was determined as 100%.

`CCCOCc1cc(C(F)(F)F)ccc1OC1CC2CCC(C1)N2c1ccc(C(F)(F)F)cn1` (centres unmarked) [2-171]: the “rate of killed adults” value was determined as 100%.

Take `Cc1cc(C)c(OC2CCN(c3ccc(C(F)(F)F)cn3)CC2)c(C)c1` [1-47]: the “rate of killed adults” value is on record as 100%.

In the case of `CCCC(O)c1cc(C(F)(F)F)ccc1OC1CC2CCC(C1)N2c1ccc(C(F)(F)F)cn1` (stereo not drawn) [2-184, 3α-[2-(1-hydroxybutyl)-4-(trifluoromethyl)phenoxy]-8-[5-(trifluoromethyl)-2-pyridyl]-8-azabicyclo[3.2.1]octane], the “rate of killed adults” value is 100%.

As for `FC(F)(F)c1ccc(N2CC3CCC(C2)C3Oc2ccc(C(F)(F)F)cc2OCC2CCO2)nc1` (centres unmarked) [5-213], the “rate of killed adults” value was found to be 100%.

Turning to `CCCOc1cc(C#N)ccc1O[C@@H]1[C@@H]2CC[C@H]1CN(c1ccc(C(F)(F)F)cn1)C2` [5-102], the “rate of killed adults” value amounted to 100%.

For `CC(COc1cc(C(F)(F)F)ccc1OC1C2CCC1CN(c1ccc(C(F)(F)F)cn1)C2)=NO` (centres unmarked) [5-182], the “rate of killed adults” value is 100%.

For `CCOc1cc(C(F)(F)F)ccc1OC1CCN(c2ccc(Cl)cn2)CC1` [1-90], the “rate of killed adults” value came out at 100%.

Turning to `CC(C)C(C)OC(=O)c1cc(C(F)(F)F)ccc1OC1CC2CCC(C1)N2c1ccc(C(F)(F)F)cn1` (centres unmarked) [2-232], the “rate of killed adults” value stood at 100%.

Take `Cc1cc(Cl)ccc1OC1CCN(c2ccc(C(F)(F)F)cn2)CC1` [1-49]: the “rate of killed adults” value was found to be 100%.

As to `CCCN(C)c1cc(C(F)(F)F)ccc1OC1C2CCC1CN(c1ccc(C(F)(F)F)cn1)C2` (centres unmarked) [5-191], the “rate of killed adults” value came to 100%.

On to `CCC1COC(c2cc(C(F)(F)F)ccc2OC2CC3CCC(C2)N3c2ccc(C(F)(F)F)cn2)=N1` (centres unmarked) [2-220], for which the “rate of killed adults” value is listed as 100%.

As for `CCC(Cl)c1cc(C(F)(F)F)ccc1OC1CCN(c2ccc(C(F)(F)F)cn2)CC1` (centres unmarked) [1-82], the “rate of killed adults” value amounted to 100%.

As to `COCC(C)OC(=O)c1cc(C(F)(F)F)ccc1OC1CC2CCC(C1)N2c1ccc(C(F)(F)F)cn1` (centres unmarked) [2-234], the “rate of killed adults” value was 100%.

Take `CC1COC(c2cc(C(F)(F)F)ccc2OC2CC3CCC(C2)N3c2ccc(C(F)(F)F)cn2)=N1` (centres unmarked) [2-199]: the “rate of killed adults” value is on record as 100%.
